Assays:
[1] = Storage stability of Formula (I) L-tartaric acid Form 2 co-crystal (long-term and accelerated); type: physicochemical; conditions: 25° C./60% RH, 0 months; to Form 2
[2] = as above; type: physicochemical; conditions: for Chemical Purity Assay: ASFB; for Crystallinity: to Form 2
Procedure: Formula (I) L-tartaric acid Form 2 co-crystal was evaluated for stability (Table 18 and Table 19). The co-crystal was stored in polyethylene double bags sealed with Nylon lock ties with two (2) 0.5 g silica gel desiccant packets in between, and inside a capped polyethylene container containing four (4) 33 g Silica Gel desiccant packs. The storage conditions were long-term condition 25° C./60% RH or accelerated condition 40° C./75% RH. The samples were analyzed for appearance, assay, related substances, chiral purity, water content and crystallinity.

COc1ccnc(-c2cnc3ccc(-c4ccc(F)c(O[C@@H](C)Cn5cnnn5)c4)nn23)c1C#N.COc1ccnc(-c2cnc3ccc(-c4ccc(F)c(O[C@@H](C)Cn5cnnn5)c4)nn23)c1C#N.O.O=C(O)C(O)C(O)C(=O)O.O=C(O)C(O)C(O)C(=O)O [Formula (I) L-Tartaric Acid Form 2]
0.26%: Related Substances: Impurity #1 ([2]; 25° C./60% RH, 6 months) | Total Impurities ([2]; 25° C./60% RH, 6 months)
Conforms: Crystallinity [1] | Crystallinity ([2]; 25° C./60% RH, 3 months) | Crystallinity ([2]; 25° C./60% RH, 6 months) | Crystallinity ([2]; 40° C./75% RH, 0 months) | Crystallinity ([2]; 40° C./75% RH, 3 months) | Crystallinity ([2]; 40° C./75% RH, 6 months)
100.0 wt %: Chemical Purity Assay ([2]; 40° C./75% RH, 6 months)
0.25%: Related Substances: Impurity #1 ([2]; 25° C./60% RH, 0 months) | Total Impurities ([2]; 25° C./60% RH, 0 months) | Related Substances: Impurity #1 ([2]; 25° C./60% RH, 3 months) | Total Impurities ([2]; 25° C./60% RH, 3 months) | Related Substances: Impurity #1 ([2]; 40° C./75% RH, 0 months) | Total Impurities ([2]; 40° C./75% RH, 0 months) | Related Substances: Impurity #1 ([2]; 40° C./75% RH, 3 months) | Total Impurities ([2]; 40° C./75% RH, 3 months) | Related Substances: Impurity #1 ([2]; 40° C./75% RH, 6 months) | Total Impurities ([2]; 40° C./75% RH, 6 months)
1.59%: Water ([2]; 25° C./60% RH, 0 months) | Water ([2]; 40° C./75% RH, 0 months)
Off-white: Description ([2]; 25° C./60% RH, 0 months) | Description ([2]; 25° C./60% RH, 3 months) | Description ([2]; 25° C./60% RH, 6 months) | Description ([2]; 40° C./75% RH, 0 months) | Description ([2]; 40° C./75% RH, 3 months) | Description ([2]; 40° C./75% RH, 6 months)
99.6 wt %: Chemical Purity Assay ([2]; 25° C./60% RH, 3 months)
99.3 wt %: Chemical Purity Assay ([2]; 25° C./60% RH, 0 months) | Chemical Purity Assay ([2]; 25° C./60% RH, 6 months) | Chemical Purity Assay ([2]; 40° C./75% RH, 0 months) | Chemical Purity Assay ([2]; 40° C./75% RH, 3 months)
1.56%: Water ([2]; 40° C./75% RH, 3 months)
1.58%: Water ([2]; 25° C./60% RH, 3 months)
1.55%: Water ([2]; 25° C./60% RH, 6 months)
1.60%: Water ([2]; 40° C./75% RH, 6 months)
>99.9 area %: Chiral Purity ([2]; 25° C./60% RH, 0 months) | Chiral Purity ([2]; 25° C./60% RH, 6 months) | Chiral Purity ([2]; 40° C./75% RH, 0 months) | Chiral Purity ([2]; 40° C./75% RH, 6 months)
